Experimental findings from patent publication US20240366612A1, “COMPOUNDS AND METHODS FOR MODULATING NUCLEIC ACID SPLICING” (REMIX THERAPEUTICS INC., priority 2021, published 2024) are described below.

Common to all, as to type: cell-based
One assay deals with HTT CJ mRNA. Briefly: Gene panel canonical junction qPCR assay, HTT. The following applies: Homo sapiens, larger gene panel, read-out: HTT IC50 (decrease in CJ mRNA levels). As for the experimental part: (§1) Compounds described herein were used to modulate RNA transcript abundance in cells. The expression of a target mRNA was measured by detecting the formation of an exon-exon junction in the canonical transcript (CJ). A compound mediated exon-inclusion event was detected by observing an increase in formation of a new junction with an alternative exon (AJ). Real-time qPCR assays were used to detect these splicing switches and interrogate the potency of various compounds towards different target genes. A high-throughput real time quantitative PCR (RT-qPCR) assay was developed to measure these two isoforms of the mRNA (CJ and AJ) for exemplary genes, such as HTT, SMN2, and MYB, together with a control housekeeping gene, GAPDH or GUSB or PPIA, used for normalization. Briefly, the A673 or K562 cell line was treated with various compounds described herein (e.g., compounds of Formula (I)). After treatment, the levels of the HTT, MYB, or SMN2 mRNA targets were determined from each sample of cell lysate by cDNA synthesis followed by qPCR.
(§2) The A673 cell line was cultured in DMEM with 10% FBS. Cells were diluted with full growth media and plated in a 96-well plate (15,000 cells in 100 ul media per well). The plate was incubated at 37° C. with 5% CO2 for 24 hours to allow cells to adhere. An 11-point 3-fold serial dilution of the compounds was made in DMSO then diluted in media in an intermediate plate. Compounds were transferred from the intermediate plate to the cell plate with the top dose at a final concentration of 10 uM in the well. Final DMSO concentration was kept at or below 0.25%. The cell plate was returned to the incubator at 37° C. with 5% CO2 for an additional 24 hours.
(§3) The K562 cell line was cultured in IMDM with 10% FBS. For K562, cells were diluted with full growth media and plated in either a 96-well plate (50,000 cells in 50 uL media per well) or a 384-well plate (8,000-40,000 cells in 45 uL media per well). An 11-point 3-fold serial dilution of the compounds were made in DMSO then diluted in media in an intermediate plate. Compound was transferred from the intermediate plate to the cell plate with the top dose at a final concentration of 10 uM in the well. Final DMSO concentration was kept at or below 0.25%. Final volume was 100 uL for 96-well plate and 50 uL for 384-well plate. The cell plate was then placed in an incubator at 37° C. with 5% CO2 for 24 hours.
(§4) The data analysis was performed by first determining the ΔCt vs the housekeeper gene. This ΔCt was then normalized against the DMSO control (ΔΔCt) and converted to RQ (relative quantification) using the 2^(−ΔΔCt) equation. The RQ were then converted to a percentage response by arbitrarily setting an assay window of 3.5 and 4.0 ΔCt for HTT-CJ and MYB-CJ respectively and an assay window of 9 and 3 ΔCt for HTT-AJ and MYB-AJ in 96 well format (50,000 K562 cells/well and 15,000 A673 cells per well) and an assay window of 3 and 4 ΔCt for HTT-CJ and MYB-CJ respectively and an assay window of 5 and 3 ΔCt for HTT-AJ and MYB-AJ respectively in 384 well format (8,000 K562 cells/well example). […] The percentage response was then fitted to the 4 parametric logistic equation to evaluate the concentration dependence of compound treatment. The increase in AJ mRNA is reported as AC50 (compound concentration having […] in AJ increase) while the decrease in CJ mRNA levels is reported as IC50 (compound concentration having 50% response in CJ decrease).
(§5) Additional studies were carried out for a larger panel of genes using the protocol provided above. The junction between flanking upstream and downstream exons was used to design canonical junction qPCR assays. At least one of the forward primer, reverse primer or the CY5-labeled 5′ nuclease probe (with 3′ quencher such as ZEN/Iowa Black FQ) was designed to overlap with the exon junction to capture the CJ mRNA transcript. […]
(In general: Quantitative PCR measures a nucleic acid by following its amplification.)

The test system of another assay is SMN2 CJ mRNA. In words: Gene panel canonical junction qPCR assay, SMN2. The following applies: Homo sapiens, larger gene panel, read-out: SMN2 IC50 (decrease in CJ mRNA levels). As for the experimental part: as §1, §2, §3, §4, §5
The subject of another assay is Target C CJ mRNA. In words: Gene panel canonical junction qPCR assay, Target C. The following applies: Homo sapiens, larger gene panel, read-out: Target C IC50 (decrease in CJ mRNA levels). The method, then:
as §1, §2, §3, §4, §5

Structures can show the parent of a compound that is named as a salt. Some results are limits rather than exact numbers.

In general, IC50 refers to the concentration that gives 50% inhibition.

As to `Cc1cn2cc(-c3cc4ncn([C@H]5CCNC[C@@H]5F)c(=O)c4s3)cc(F)c2n1` (relative stereo) [Compound 272, trans-6-{8-fluoro-2-methylimidazo[1,2-a]pyridin-6-yl}-3-[3-fluoropiperidin-4-yl]thieno[3,2-d]pyrimidin-4-one], the IC50 in the assay with HTT CJ mRNA was 1 to 10 µM; in the assay on SMN2 CJ mRNA, under 0.1 µM; with Target C CJ mRNA, over 10 µM.
Taken in the same sequence, the figures for `Cc1cn2cc(-c3cc4ncn([C@H]5CCNC[C@H]5F)c(=O)c4s3)cc(F)c2n1` (relative stereo) [Compound 273, cis-6-{8-fluoro-2-methylimidazo[1,2-a]pyridin-6-yl}-3-[3-fluoropiperidin-4-yl]thieno[3,2-d]pyrimidin-4-one] were 0.1 to 1 µM, 0.1 to 1 µM and 1 to 10 µM.
In the case of `Cc1cn2cc(-c3cc4ncn([C@H]5CCN[C@H](C)C5)c(=O)c4s3)cc(F)c2n1` (relative stereo) [Compound 277, 6-{8-fluoro-2-methylimidazo[1,2-a]pyridin-6-yl}-3-[(trans)-2-methylpiperidin-4-yl]thieno[3,2-d]pyrimidin-4-one], the concentration for half-maximal inhibition (IC50) in the assay with HTT CJ mRNA was 0.1 to 1 µM; in the assay with SMN2 CJ mRNA, under 0.1 µM; in the assay with Target C CJ mRNA, 1 to 10 µM.
Turning to `Cc1cn2cc(-c3cc4ncn([C@H]5CCN[C@@H](C)C5)c(=O)c4s3)cc(F)c2n1` (relative stereo) [Compound 278, 6-{8-fluoro-2-methylimidazo[1,2-a]pyridin-6-yl}-3-[(cis)-2-methylpiperidin-4-yl]thieno[3,2-d]pyrimidin-4-one hydrochloride], the half-inhibitory concentration (IC50) with HTT CJ mRNA is 0.1 to 1 µM; in the assay on SMN2 CJ mRNA, under 0.1 µM; with Target C CJ mRNA, 0.1 to 1 µM.
On to `Cc1cc(-c2cc(=O)n3cc(N4CCN(C)CC4)sc3n2)cc2cn(C)nc12` [Compound 109, 7-(2,7-dimethyl-2H-indazol-5-yl)-2-(4-methylpiperazin-1-yl)-5H-thiazolo[3,2-a]pyrimidin-5-one], for which the 50% inhibitory concentration (IC50) in the assay on HTT CJ mRNA, in the assay on SMN2 CJ mRNA and with Target C CJ mRNA was over 10 µM throughout.
On to `Cc1cc(-c2cc(=O)n3nc(N4CCN(C)CC4)sc3n2)cc2cn(C)nc12` [Compound 157, 7-(2,7-dimethyl-2H-indazol-5-yl)-2-(4-methylpiperazin-1-yl)-5H-[1,3,4]thiadiazolo[3,2-a]pyrimidin-5-one], for which the 50% inhibitory concentration (IC50) in the assay on HTT CJ mRNA, with SMN2 CJ mRNA and in the assay with Target C CJ mRNA was over 10 µM throughout.
For the compound `Cc1cn2cc(-c3cc(=O)n4nc(N5CCN(C)CC5)sc4n3)cc(F)c2n1` [Compound 159, 7-(8-fluoro-2-methylimidazo[1,2-a]pyridin-6-yl)-2-(4-methylpiperazin-1-yl)-5H-[1,3,4]thiadiazolo[3,2-a]pyrimidin-5-one], the IC50 in the assay on HTT CJ mRNA, with SMN2 CJ mRNA and in the assay with Target C CJ mRNA was 1 to 10 µM throughout.
Consider `Cc1cc(-c2nn3c(=O)cc(N4CCNCC4)nc3s2)cc2cn(C)nc12` [Compound 206, 2-(2,7-dimethyl-2H-indazol-5-yl)-7-(piperazin-1-yl)-5H-[1,3,4]thiadiazolo[3,2-a]pyrimidin-5-one], for which the IC50 in the assay on HTT CJ mRNA was 1 to 10 µM; with SMN2 CJ mRNA, 0.1 to 1 µM; in the assay on Target C CJ mRNA, 1 to 10 µM.
Take `Cc1cn2cc(-c3cc(=O)n4cc(N5CCNC6(CC6)C5)sc4n3)cc(F)c2n1` [Compound 207, 7-(8-fluoro-2-methylimidazo[1,2-a]pyridin-6-yl)-2-(4,7-diazaspiro[2.5]octan-7-yl)-5H-thiazolo[3,2-a]pyrimidin-5-one]: the concentration for half-maximal inhibition (IC50) in the assay with HTT CJ mRNA is over 10 µM; in the assay with SMN2 CJ mRNA, 0.1 to 1 µM; in the assay with Target C CJ mRNA, over 10 µM.
For `Cc1cn2cc(-c3cn4c(=O)cc(N5CCNC6(CC6)C5)nc4s3)cc(F)c2n1` [Compound 208, 2-(8-fluoro-2-methylimidazo[1,2-a]pyridin-6-yl)-7-(4,7-diazaspiro[2.5]octan-7-yl)-5H-thiazolo[3,2-a]pyrimidin-5-one], the concentration for half-maximal inhibition (IC50) in the assay with HTT CJ mRNA, in the assay with SMN2 CJ mRNA and with Target C CJ mRNA was 1 to 10 µM throughout.
